Measured values published in patent US20260092085A1, “SYNTHETIC TRIPLEX PEPTIDE NUCLEIC ACID-BASED INHIBITORS FOR CANCER THERAPY” (University of Connecticut, priority 2022, published 2026).

What was measured:
U2932 tumors = assay: Immunostaining of Caspase-3 and Ki67 in treated U2932 tumors; type: in vivo, NSG mice; settings: U2932 xenograft
Protocol: FIGS. 17A-D show in vivo studies in U2932 derived xenograft model. (17A) Biodistribution of γtcPNA-155 TAMRA in tumor sections (17B) Tumor volume fold change (n=6, data represented as mean±standard error mean (SEM), *p<0.05, **p<0.01, multiple t-tests one per row was used for statistical analysis). Asterisk denotes the analysis was performed relative to Scr-γtcPNA-155. Diamond symbol denotes the analysis was performed relative to PNA-155. (17C) Representative images showing the effects of Scr-γtcPNA-155, PNA-155, γPNA-155 and γtcPNA-155 on Caspase-3 immunostaining of tumor (magnification; ×20). Autofluorescence (AF) at 514 nm was used to show the tumor. Scale bar=[…]. (17D) Caspase-3 immunostaining quantification, *p<0.05. n=15. The n indicates the number of images.
FIGS. 21A-B show Ki-67 immunostaining (21A) and quantification (21B) in the in vivo treated tumors (n=15), **p<0.01. The n indicates the number of images. Scale bar=50 μm.
Histopathology and immunohistochemistry; The mice were sacrificed by CO2 inhalation when tumor volume reached 2000 mm^3. The tumor and vital organs (e.g., liver, kidney, spleen, lungs, heart) were carefully isolated, weighed, and fixed in the 10% NBF solution. The sections ([…]) of formalin-fixed paraffin-embedded liver and kidney were stained by hematoxylin and eosin for the histological analysis. […]

Mcl-1 and Caspase-3 = assay: Western blot of Mcl-1 and Caspase-3 in U2932 cells; type: cell-based, human; settings: U2932, 500 nM
Protocol: FIGS. 3A-F show cell culture-based functional assay in U2932 lymphoma cells. (3A) γtcPNA-155-TAMRA uptake in the U2932 lymphoma cell line: Representative flow cytometry traces of TAMRA fluorescence in U2932 cells after treatment with 500 nM dose of γtcPNA-155-TAMRA for 48 hours. The data was analyzed by FlowJo software. (3B) Normalized miR-155 gene expression levels in U2932 after treatment with phosphate buffer saline (PBS) as a control and with 500 nM dose of Scr-γtcPNA-155, PNA-155, γPNA-155 and γtcPNA-155 for 48 hours compared to average control U6 (n=3), data represented as mean±standard error mean (SEM), Statistical analysis was performed using Unpaired two-tailed t-test. […] (3E) Representative western blot of Mcl-1 and its quantification (n=3 technical replicate) and (3F) Caspase-3 protein and its quantification (n=3 technical replicate) in U2932 cell line after treatment with 500 nM of Scr-γtcPNA-155, PNA-155 and γtcPNA-155 for 48 hours. […] Numbers above western blot panels represent relative quantification of the respective bands using ImageJ software and normalized relative to loading control and treatment control.
FIGS. 5A-B show representative western blot of Mcl-1 (5A) and Caspase-3 (5B) and its quantification (n=3) obtained from U2932 cell line after treatment with 500 nM of Scr-γtcPNA-155, γPNA-155 and γtcPNA-155 for 48 hours. […]

γtcPNA-155: serine gamma tail-clamp anti-miR-155 PNA, RR-TJJJJ-OOO-ACCCCTATCACGATTAGCATTAA-RR, SEQ ID NO: 3 (all peptide nucleic acid (PNA); serine gamma PNA, tail-clamp TJJJJ via linkers, Arg-Arg at both ends)
Caspase-3 positive cells in tumor sections (U2932 tumors): increase | Ki67 positive cells in tumor sections (U2932 tumors): significant decrease | downregulation of Mcl-1 protein (western blot) (Mcl-1 and Caspase-3): 50% | upregulation of Caspase-3 protein (western blot) (Mcl-1 and Caspase-3): 80%
